Experiments:
[1] = MTT: Cell Damaging and Protecting Effect Test; assay type: cell-based, rabbit (male Japanese White); details: rabbit, gastric corpus mucosa cells, final concentration 10^-4 M, smaller value is better, read-out: MTT cell damaging rate
Description: MTT: Cell Damaging and Protecting Effect Test
It is confirmed that there is no toxicity in cell level. Those having a toxicity in cell level are inappropriate as an anti-ulcer drug.
A male Japanese White rabbit (2.5 to 3 kg) was anesthetized to death by Nembutal™ and, immediately thereafter, its stomach was removed. The greater curvature of the stomach was incised so as to remove the stomach contents therefrom. After the mucosal surface was washed with HBSS (Hanks' Balanced Salt Solution), the stomach in ice-cooled HBSS was transferred to a laboratory. Then, after the pyloric antrum was removed, the gastric corpus mucosa was separated by a spatula and then minced into 2 to 3 mm^3 pieces in BME (Basal Medium Eagle). Thereafter, these pieces were shaken at 120 to 130 cycles/minute for 15 minutes at 37° C. in BME 60 ml containing 280 U/ml of dispase and 30 to 50 U/ml of collagenase. Here, the concentration of collagenase was appropriately changed for each lot in view of the state of cells. The pieces were washed twice with EBSS (Earle's Balanced Salt Solution) containing 1 mM of EDTA and then shaken in MEM (Minimum Essential Medium) containing 1 mM of EDTA at 37° C. for 5 minutes. Subsequently, they were shaken in the dispase and collagenase having the same concentrations as those mentioned above for 15 minutes so as to remove the supernatant and then further shaken at 37° C. for 50 to 60 minutes at 120 to 130 cycles/minute. Then, after being washed twice with HBSS, Ham F12 containing 2% of Ultrocer G™ was used to attain the concentration of 1×10^6 cells/ml. Thus formed suspension was dispensed in each well of a 96-well plate by 200 μl. The plate was incubated in the atmosphere composed of 5% CO2 and 95% air at 37° C. for three days so as to attain a confluent state and then subjected to MTT assay.
The sample compound was dissolved in DMSO so as to attain a concentration of 10^-2 M and then diluted with HBSS containing 2% of Ultrocer G™ so as to attain a final concentration of 10^-4 M. To each group, which 8 wells were used for, 10 μl of MTT reagent was added immediately after 100 μl of the medium in each well was exchanged for same volume of the resulting solution of the sample compound. After being incubated in an atmosphere composed of 5% CO2 and 95% air at 37° C. for 4 hours, thus formed solution was centrifuged and then its supernatant was discarded. Subsequently, 100 μl of 100% ethanol was added to the residue so as to dissolve MTT formazan. Then, the absorbance (OD: 570 to 630) was measured by a microplate reader. This method utilizes a phenomenon in which MTT is changed to MTT formazan only by mitochondria of living cells so as to change color.
The cell damaging or cell protecting effect of the sample compound at the final concentration of 10^-4 M was expressed as cell damaging rate (%) as follows:
cell damaging rate (%)=(1-(absorbance in sample group/absorbance in control group))×100
Accordingly, the smaller rate value is better in the cell damage.

[2] = system: isolated gastric fundic gland; assay: CAP: Acid Secretion Inhibition Test In Vitro ([14C]-aminopyrine uptake); assay type: cell-based, rabbit (male Japanese White); details: Oryctolagus cuniculus; final concentration 10^-5 M; histamine 10^-5 M; rabbit gastric fundic glands; read-out: CAP acid secretion inhibitory rate
Experimental: CAP: Acid Secretion Inhibition Test In Vitro
The acid secretion inhibitory activity in a cell level is studied. It can also be used for studying the mechanism of the effect. […]
ii-a) Preparation of Isolated Gastric Fundus Gland Suspension
First, an isolated gastric fundic gland sample was prepared. Namely, a male Japanese White rabbit (2.5 to 3 kg) was anesthetized to death with Nembutal™ and then the abdomen was incised. Immediately thereafter, the stomach was removed and, after its pyloric and cardiac antrum were severed, incised along its greater curvature into two sheets. The gastric contents adhering to the mucosal surface was washed out with ice-cooled PBS (-) and then carefully washed therein. The gastric wall was spread on a cork board with its mucosal surface facing up and the feed and mucus thereon were completely removed with sterile gauze. The mucosa was separated therefrom by a spatula and then collected in ice-cooled PBS (-). After being washed twice with PBS (-), the mucosa was minced into 2-3 mm^3 pieces by scissors. These pieces were further washed twice with a nutrient solution. […] Into 70 ml of the nutrient solution containing 1 mg/ml of collagenase, minced mucosal pieces were dispersed and intensely stirred in a conical flask with a stirrer at 37° C. for 40 to 60 minutes. During this period, 100% O2 was sprayed on the nutrient solution surface and the pH was appropriately measured such that it was immediately adjusted to pH 7.4, when the value was therebelow, with a base. The nutrient solution was added to the reaction solution so as to attain the total amount of about 200 ml. After being filtered through a mesh, the suspension was divisionally introduced into 50 ml centrifuge tubes and left for 15 minutes such that gastric fundic gland was deposited. The supernatant was repeatedly removed by an aspirator, dispersed in the nutrient solution, and then left such that the gastric fundic gland was washed three times. At this time, without using a pipette, the suspension was alternately introduced into two centrifuge tubes so as to effect dispersion. The number of cells was counted under microscope and adjusted to 1.6×10^6 cells/ml. […]
ii-b) [^14 C]-aminopyrine Uptake Test
Then, [^14 C]-aminopyrine uptake test was performed. After an Eppendorf tube was weighed, 10 μl (final concentration: 10^-5 M) of histamine dissolved in the above-mentioned nutrient solution, 10 μl (final concentration: 10^-5 M) of the test compound dissolved in DMSO, and 10 μl (final concentration: 0.05 μCi/ml) of [^14 C]-aminopyrine diluted with the nutrient solution were introduced therein and then 970 μl of the isolated gastric fundic gland suspension prepared above was added thereto. […] After being centrifuged for 30 minutes, 200 μl of its supernatant was collected into a mini-vial, while the rest was removed by an aspirator. The gland pellet was completely dried as the tube with its lid being opened was kept for one night in a drying oven at 80° C. and then the lid was closed and the weight was determined at room temperature. Then 100 μl of 1N KOH was added thereto and the tube with its lid being closed was treated at 60° C. for 1 to 2 hours so as to dissolve the pellet. Then, the contents thereof were transferred to a mini-vial. Into the mini-vial containing the supernatant or gland pellet, 4 ml of Atomlite™ was added and then the radioactivity was measured by a liquid scintillation counter. Here, after the radioactivity of the gland pellet was corrected by using a sample in which 20 mM of NaSCN was added so as to cancel the hydrogen ion concentration gradient, the integration ratio of aminopyrine specifically trapped by the gland pellet was calculated. This experiment was performed in duplicate. […]
ii-c) Calculation of the Accumulation Rate of Aminopyrine
Here, its principle will be briefly explained. In the isolated gastric fundic gland, acid is accumulated in a space between its secretory tubule and intraglandular cavity.

Structure (SMILES): CC(C)=CCC/C(C)=C/COc1ccc(C(=O)N2CCN(CCNC(=O)c3ccc4c(c3)OCO4)CC2)cc1 [Example 1, 1-(4-geranyloxy)benzoyl-4-[2-(piperonyloylamino)ethyl]piperazine]
- cytotoxicity at 4 h, 100 µM [1]: 21%
- inhibition at 10 µM [2]: 100%
